From ChEMBL document CHEMBL4699480 (J Med Chem, 2020)
Activity calls are given as the source filed them. The rule behind the calls is not given here.

Columns and labels:
[1] = Inhibition of Mycobacterium tuberculosis WecA
[2] = Cytotoxicity in human hTERT-HPNE cells assessed as reduction in cell viability incubated for 72 hrs by MTT assay; format: cell-based
SiHa = test: Cytotoxicity in human SiHa cells assessed as reduction in cell viability incubated for 72 hrs by MTT assay; format: functional, cell-based
HCT-116 = test: Cytotoxicity in human HCT-116 cells assessed as reduction in cell viability incubated for 72 hrs by MTT assay; format: functional, cell-based; details: HCT-116, 72 h
ASPC1 = test: Cytotoxicity in human ASPC1 cells assessed as reduction in cell viability incubated for 72 hrs by MTT assay; format: functional, cell-based; details: ASPC1, 72 h
PANC-1 = test: Cytotoxicity in human PANC-1 cells assessed as reduction in cell viability incubated for 72 hrs by MTT assay; format: functional, cell-based; details: PANC-1, 72 h
[3] = Inhibition of N-terminal His9-tagged Methanocaldococcus jannaschii DSM 2661 AglH incubated for 2 hrs using UDP-GlcN-Cg-FITC and alpha-dihydroundecap-renyl phosphate by reversed-phase HPLC analysis
[4] = Cytotoxicity in human PD002 cells assessed as reduction in cell viability incubated for 72 hrs by MTT assay; format: functional, cell-based; details: PD002, 72 h
[5] = target: T1, UDP-N-acetylglucosamine--dolichyl-phosphate N-acetylglucosaminephosphotransferase (Homo sapiens, UniProt Q9H3H5); test: Inhibition of human DPAGT1 expressed in HEK293 (Expi293) cells incubated for 2 hrs using UDP-GlcN-Cg-FITC and alpha-dihydroundecap-renyl phosphate by reversed-phase HPLC analysis; format: cell-based
T1 sequence (Q9H3H5 whole entry): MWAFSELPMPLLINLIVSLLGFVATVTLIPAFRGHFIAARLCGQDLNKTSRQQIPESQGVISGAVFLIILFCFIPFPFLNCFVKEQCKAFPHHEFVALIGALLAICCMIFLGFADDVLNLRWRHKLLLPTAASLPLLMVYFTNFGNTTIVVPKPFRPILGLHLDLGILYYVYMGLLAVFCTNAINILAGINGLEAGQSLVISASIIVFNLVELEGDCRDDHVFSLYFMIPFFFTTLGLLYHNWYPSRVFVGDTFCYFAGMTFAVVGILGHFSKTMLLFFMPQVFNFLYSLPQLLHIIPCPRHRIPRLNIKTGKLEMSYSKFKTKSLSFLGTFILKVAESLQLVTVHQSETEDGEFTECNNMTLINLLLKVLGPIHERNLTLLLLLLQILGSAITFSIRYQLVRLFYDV

[6] = Inhibition of N-terminal 6x-His-tagged Hydrogenivirga-sp. 128-5-R1-1 MraY expressed in Escherichia coli NiCo21(DE3) incubated for 2 hrs by reversed-phase HPLC analysis
[7] = Inhibition of Mycobacterium tuberculosis WecA by fluorescence based assay
CAPAN-1 = test: Cytotoxicity in human CAPAN-1 cells assessed as reduction in cell viability incubated for 72 hrs by MTT assay; format: functional, cell-based; details: CAPAN-1, 72 h
DLD-1 = test: Cytotoxicity in human DLD-1 cells assessed as reduction in cell viability incubated for 72 hrs by MTT assay; format: functional, cell-based; details: DLD-1, 72 h
KB = test: Cytotoxicity in human KB cells assessed as reduction in cell viability incubated for 72 hrs by MTT assay; format: functional, cell-based
Vero = test: Cytotoxicity in African green monkey Vero cells assessed as reduction in cell viability incubated for 72 hrs by MTT assay; format: cell-based; details: Chlorocebus sabaeus
[8] = Inhibition of Escherichia coli WecA incubated for 2 hrs using UDP-Glucosamine-C6-FITC substrate by reversed-phase HPLC analysis; parameters: species or system Escherichia coli BL21
[9] = Cytotoxicity in mouse L1210 cells assessed as reduction in cell viability incubated for 72 hrs by MTT assay; details: L1210, 72 h
PD002 = test: Inhibition of cell migration in human PD002 cells at 0.1 uM incubated for 0.5 hrs by crystal violet staining based Boyden chamber assay; format: functional

Structure (SMILES) | IC50 [3] | IC50 [5] | IC50 [6] | IC50 [8] | other results
CCCCc1ccc(NC(=O)C2=CCN(C)[C@@H]([C@H](O[C@@H]3O[C@H](CN)[C@@H](O)[C@H]3O)[C@H]3O[C@@H](n4ccc(=O)[nH]c4=O)[C@H](O)[C@@H]3O)C(=O)N2C)cc1 |  |  |  |  | IC50 [1]: 0.084 µM
CO[C@H]1[C@@H](OC)[C@H](n2ccc(=O)[nH]c2=O)O[C@@H]1[C@@H](O[C@H]1OC(C(=O)N[C@H]2CCCCNC2=O)=C[C@H](O)[C@@H]1O)C(N)=O | 2.5 µM | 4.5 µM | > 50 µM | 0.06 µM | IC50 [2]: > 50 µM; IC50 (SiHa): > 50 µM; IC50 (HCT-116): > 50 µM; IC50 (ASPC1): > 50 µM; IC50 (PANC-1): > 50 µM; IC50 [4]: > 50 µM; IC50 [7]: 0.06 µM; IC50 (CAPAN-1): > 50 µM; IC50 (DLD-1): > 50 µM; IC50 (KB): > 50 µM; IC50 (Vero): > 50 µM; IC50 [9]: > 50 µM
CO[C@H]1[C@@H](O)[C@H](n2ccc(=O)[nH]c2=O)O[C@@H]1[C@@H](O[C@H]1OC(C(=O)N[C@H]2CCCCNC2=O)=C[C@H](O)[C@@H]1O)C(N)=O [CAPURAMYCIN] | > 50 µM | > 50 µM | 0.13 µM | > 50 µM | IC50 [2]: > 50 µM; IC50 (SiHa): > 50 µM; IC50 (HCT-116): > 50 µM; IC50 (ASPC1): > 50 µM; IC50 (PANC-1): > 50 µM; IC50 [4]: > 50 µM; IC50 (CAPAN-1): > 50 µM; IC50 (DLD-1): > 50 µM; IC50 (KB): > 50 µM; IC50 (Vero): > 50 µM; IC50 [9]: > 50 µM
NC(=O)[C@H](O[C@H]1OC(C(=O)NCc2ccc(N3CCC(Oc4ccc(OC(F)(F)F)cc4)CC3)cc2)=C[C@H](O)[C@@H]1O)[C@H]1O[C@@H](n2ccc(=O)[nH]c2=O)[C@H](O)[C@@H]1O | > 50 µM | > 50 µM | > 50 µM | 30 µM | 
NC[C@H]1O[C@@H](O[C@H]([C@H]2O[C@@H](n3ccc(=O)[nH]c3=O)[C@H](O)[C@@H]2O)[C@H](NCCCC(=O)NCc2ccc(N3CCC(Oc4ccc(OC(F)(F)F)cc4)CC3)cc2)C(N)=O)[C@H](O)[C@@H]1O | 0.01 µM | 0.01 µM | 0.01 µM | 0.01 µM | 
Nc1ccn([C@@H]2O[C@H](CO)[C@@H](O)C2(F)F)c(=O)n1 |  |  |  |  | inhibition (PD002): Active
CO[C@@H]1[C@H](O)[C@@H]([C@@H](O[C@H]2OC(C(=O)NCc3ccc(N4CCC(Oc5ccc(OC(F)(F)F)cc5)CC4)cc3)=C[C@H](O)[C@@H]2O)C(N)=O)O[C@H]1n1ccc(=O)[nH]c1=O | 15 µM |  | > 50 µM | 20 µM | IC50 [2]: > 50 µM; IC50 (SiHa): 25 µM; IC50 (HCT-116): 25 µM; IC50 (ASPC1): 30 µM; IC50 (PANC-1): 45 µM; IC50 [4]: 50 µM; IC50 (CAPAN-1): 40 µM; IC50 (DLD-1): 35 µM; IC50 (KB): 35 µM; IC50 (Vero): > 50 µM; IC50 [9]: > 50 µM
CO[C@@H]1[C@H](O)[C@@H]([C@@H](O[C@H]2OC(C(=O)N[C@H]3CCCCNC3=O)=C[C@H](O)[C@@H]2O)C(N)=O)O[C@H]1n1ccc(=O)[nH]c1=O | 20 µM | 11.5 µM | 8.5 µM | 30 µM | 
CO[C@@H]1[C@H](O)[C@@H]([C@@H](O[C@H]2OC(CNCc3ccc(N4CCC(Oc5ccc(OC(F)(F)F)cc5)CC4)cc3)=C[C@H](O)[C@@H]2O)C(N)=O)O[C@H]1n1ccc(=O)[nH]c1=O | > 50 µM | > 50 µM | > 50 µM | > 50 µM | 
NC(=O)[C@H](O[C@H]1OC(C(=O)N[C@H]2CCCCNC2=O)=C[C@H](O)[C@@H]1O)[C@H]1O[C@@H](n2ccc(=O)[nH]c2=O)[C@H](O)[C@@H]1O | > 50 µM | > 50 µM | > 50 µM | 35 µM | 
CO[C@H]1[C@@H](OC)[C@H](n2ccc(=O)[nH]c2=O)O[C@@H]1[C@@H](O[C@H]1OC(C(=O)NCc2ccc(N3CCC(Oc4ccc(OC(F)(F)F)cc4)CC3)cc2)=C[C@H](O)[C@@H]1O)C(N)=O | 30 µM | 20 µM | 5 µM | 10 µM | 
CO[C@H]1[C@@H](O)[C@H](n2ccc(=O)[nH]c2=O)O[C@@H]1[C@@H](O[C@H]1OC(CNCc2ccc(N3CCC(Oc4ccc(OC(F)(F)F)cc4)CC3)cc2)=C[C@H](O)[C@@H]1O)C(N)=O | > 50 µM | > 50 µM | > 50 µM | > 50 µM | 
